Laboratory results published in US12441733B2, “Substituted 2,4-dioxotetrahydropyrimidines as intermediates in the synthesis of bruton's tyrosine kinase inhibitors” (Novartis AG, priority 2018, dated 2025).

What was measured:
Assay type in all cases: cell-based
[1] = system: TMD8 cells; test: Resazurin cell viability (proliferation) assay in TMD8 DLBCL cells; conditions: Homo sapiens, TMD8 cells (BTK dependent), 72 h, 50% growth inhibition vs vehicle, read-out: TMD8 Prol GI50
Description: (§1) Compounds of the invention were tested in the following cellular assays. The terms in Table 2 are defined as follows: DC50 refers to the concentration at which 50% maximal degradation was observed; deg Amax is the extent of degradation and the value refers to the % protein remaining at the concentration at which maximum degradation is seen; ProI GI50 refers to the proliferation data and defines the concentration at which 50% growth inhibition was observed compared to the vehicle treated control at the end of the incubation time. TMD8 cells are BTK dependent and OCI-LY3 cells are BTK independent.
(§2) Cell Viability Assay in DLBCL (Diffuse Large B-Cell Lymphoma) Cells:
(§3) The effect of the BTK compounds on cell proliferation was measured by a Resazurin (Sigma, #R7017) based cell viability assay. TMD8 (BTK compound sensitive) and OCI-LY3 (BTK compound insensitive) cells were incubated for 72 h at 37° C. and 5% CO2 with the corresponding compound, Resazurin is a non-toxic, cell-permeable substrate that is virtually non-fluorescent. Upon entering living cells, Resazurin (Sigma, #R7017) is reduced to highly fluorescent Resorufin. The metabolic activity was assessed by measuring the fluorescence signal (ex. 530 nm; em. 600 nm).
(§4) TMD8 and OCI-Ly3 cells were seeded at day 0 in triplicates at a cell density of 1×10^4 cells per 150 μl/well in a 96-well plate (Costar #3904). Additional plates were prepared, in order to assess the basal metabolic activity of both cell lines at the beginning of the experiment. For these reference plates, Resazurin (Sigma, #R7017) was added to a final concentration of 13 μg/ml 3 h post seeding and was incubated for 2 h at 37° C. and 5% CO2. Following incubation, the fluorescent signal intensity of the 96-well plates was measured on a Mithras LB940 multimode plate reader at 530/600 nm (Berthold Technologies, Germanyl).
(§5) In parallel, 3 h post-seeding, test-plates were treated with compound at various concentrations, or with vehicle (DMSO) alone for 3 days. The compound addition to the plates was performed by using a HP D300 digital dispenser (TECAN, Switzerland). The compounds were tested in triplicate, 8-point serial dilution (1:4), with a start concentration of 10 μM for OCI-LY3 and 1 μM for the TMD8 cells, respectively. To assess the relative proliferation of the cells, Resazurin was added to each well directly to the medium to a final concentration of 13 μg/ml. The plates were incubated for 2 h at 37° C. and 5% CO2 to result in a 72 h endpoint. Following incubation, the fluorescent signal intensity of the 96-well plates were measured on a Mithras LB940 multimode plate reader at 530/600 nm (Berthold Technologies, Germanyl). The formation of Resorufin dye directly correlates with the number of metabolically active cells. For each triplicate treatment the mean and standard deviation were calculated and analyzed via curve fitting software to determine the respective compound concentration resulting in 50% growth inhibition (GI50) values. For each compound GI50 values were typically determined from at least 2 entirely independent experiments.
TMD8 cells were acquired through a license agreement with Tokyo Medical and Dental University, Japan. Cells are cultivated in MEM Alpha (BioConcept, #1-23F01-1, lot. LB04262P) supplemented with 10% FCS (HyClone, GE #SH30066.03, lot AB3217603), 2 mM L-Glutamine (BioConcept, #5-10K50-H, lot. LA03467P), 1% Pen/Strep (BioConcept, #4-01F00-H, lot. LB04235P).

[2] = target: T1, BTK-GFP (Homo sapiens, UniProt Q06187+Q96SW2); test: BTK-GFP protein abundance flow cytometry assay in HEK293A cells; conditions: HEK293A BTK-GFP-iresRFP cells, 24 h; for DC50: GFP signal by flow cytometry, concentration at which 50% maximal degradation was observed; for BTK deg Amax: % protein remaining at the concentration at which maximum degradation is seen
T1 construct: expressed in transfected cells; host or cells: HEK293A (Invitrogen R70507), lentiviral transduction with pLenti6-BTK-GFP-Ires-RFP, blasticidin selection
T1 sequence (Q06187 whole entry): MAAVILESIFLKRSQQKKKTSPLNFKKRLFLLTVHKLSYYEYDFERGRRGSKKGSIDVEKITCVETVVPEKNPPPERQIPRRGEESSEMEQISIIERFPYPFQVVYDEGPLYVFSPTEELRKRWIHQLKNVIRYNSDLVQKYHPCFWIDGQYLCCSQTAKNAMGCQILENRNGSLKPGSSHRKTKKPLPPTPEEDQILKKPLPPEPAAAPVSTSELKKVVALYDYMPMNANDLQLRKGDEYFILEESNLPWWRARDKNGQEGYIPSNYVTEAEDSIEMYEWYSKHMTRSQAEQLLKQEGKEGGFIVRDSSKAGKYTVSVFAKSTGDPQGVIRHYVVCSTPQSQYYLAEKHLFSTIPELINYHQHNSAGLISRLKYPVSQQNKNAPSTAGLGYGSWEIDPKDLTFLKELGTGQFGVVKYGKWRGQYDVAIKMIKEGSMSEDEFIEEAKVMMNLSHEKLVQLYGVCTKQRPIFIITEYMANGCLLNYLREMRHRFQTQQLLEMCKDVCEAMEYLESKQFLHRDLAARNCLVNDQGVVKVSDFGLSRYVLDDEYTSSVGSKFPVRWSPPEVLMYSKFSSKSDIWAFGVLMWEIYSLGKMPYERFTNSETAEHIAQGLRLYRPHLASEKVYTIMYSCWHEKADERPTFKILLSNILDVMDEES
T1 sequence (Q96SW2 whole entry): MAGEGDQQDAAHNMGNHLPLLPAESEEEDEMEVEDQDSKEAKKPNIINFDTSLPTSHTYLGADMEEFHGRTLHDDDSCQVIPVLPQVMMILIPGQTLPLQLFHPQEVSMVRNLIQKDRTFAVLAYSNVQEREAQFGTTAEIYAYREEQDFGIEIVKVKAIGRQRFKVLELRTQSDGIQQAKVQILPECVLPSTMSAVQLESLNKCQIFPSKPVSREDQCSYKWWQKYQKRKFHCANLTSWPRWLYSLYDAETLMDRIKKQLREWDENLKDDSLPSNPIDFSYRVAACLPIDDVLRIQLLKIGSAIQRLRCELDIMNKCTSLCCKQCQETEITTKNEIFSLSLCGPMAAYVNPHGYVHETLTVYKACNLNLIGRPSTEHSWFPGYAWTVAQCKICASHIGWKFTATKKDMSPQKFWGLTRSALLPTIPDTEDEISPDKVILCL
T1 sequence (Q16531 whole entry partner): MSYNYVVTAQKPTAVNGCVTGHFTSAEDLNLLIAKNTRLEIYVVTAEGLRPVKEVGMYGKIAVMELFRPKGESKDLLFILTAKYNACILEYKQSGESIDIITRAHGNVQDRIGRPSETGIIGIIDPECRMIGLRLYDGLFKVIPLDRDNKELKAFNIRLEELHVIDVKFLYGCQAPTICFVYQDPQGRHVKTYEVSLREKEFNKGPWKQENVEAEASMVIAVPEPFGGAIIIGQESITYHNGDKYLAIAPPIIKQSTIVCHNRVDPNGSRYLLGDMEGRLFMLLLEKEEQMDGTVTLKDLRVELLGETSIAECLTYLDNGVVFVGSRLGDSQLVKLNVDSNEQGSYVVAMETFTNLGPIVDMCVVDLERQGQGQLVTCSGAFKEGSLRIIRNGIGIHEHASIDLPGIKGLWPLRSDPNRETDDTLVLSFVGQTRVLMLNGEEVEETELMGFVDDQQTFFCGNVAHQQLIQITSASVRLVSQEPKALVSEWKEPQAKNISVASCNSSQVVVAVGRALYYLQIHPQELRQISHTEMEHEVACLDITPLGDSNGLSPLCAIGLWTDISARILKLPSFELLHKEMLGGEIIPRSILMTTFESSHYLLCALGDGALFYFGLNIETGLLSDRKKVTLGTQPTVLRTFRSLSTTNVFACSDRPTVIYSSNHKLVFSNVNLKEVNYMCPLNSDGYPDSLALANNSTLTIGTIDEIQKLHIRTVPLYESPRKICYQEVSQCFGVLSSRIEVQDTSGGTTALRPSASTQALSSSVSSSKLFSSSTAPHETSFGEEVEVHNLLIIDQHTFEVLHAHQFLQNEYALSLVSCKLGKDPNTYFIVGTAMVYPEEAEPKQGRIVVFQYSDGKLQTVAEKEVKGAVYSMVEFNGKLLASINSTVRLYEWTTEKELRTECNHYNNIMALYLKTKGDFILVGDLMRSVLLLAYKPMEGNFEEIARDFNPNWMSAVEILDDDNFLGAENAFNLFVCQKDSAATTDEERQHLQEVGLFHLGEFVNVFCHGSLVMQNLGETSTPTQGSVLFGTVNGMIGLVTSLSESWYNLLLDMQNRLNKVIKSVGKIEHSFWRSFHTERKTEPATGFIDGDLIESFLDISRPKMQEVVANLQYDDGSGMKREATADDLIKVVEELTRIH
Description: as §1
BTK-GFP and IKZF3-GFP protein abundance flow cytometry assay in HEK293A cells:
Degradation of BTK or IKZF3 was measured in HEK293A cells (Invitrogen R70507) expressing either BTK-GFP and RFP or IKZF3-GFP and RFP from a stably integrated bicistronic BTK-GFP-iresRFP or IKZF3-GFP-iresRFP construct, respectively. Reduction of the GFP signal measured by flow cytometry served as readout for BTK or IKZF3 degradation after degrader treatment.
i) Cloning of the pLenti6-BTK-GFP-1Res-RFP and IKZF3-GFP-Ires-RFP Sensor Vectors
The bicistronic BTK-GFP-iresRFP construct is based on a pLenti6-DEST vector backbone where GFP was introduced into the unique Xho1 site downstream of the destination cassette (DEST) and RFP was cloned behind an internal ribosomal entry site (Ires).
In detail, the sensor construct was engineered by replacing NanoLuciferase (NLuc) by GFP and FireFly luciferase (FF) by RFP from pLenti6-DEST-NLuc-Ires-FF.
The pLenti6-DEST-NLuc-Ires-FF sensor construct was cloned by replacing eGFP from pLenti6-DEST-ires-eGFP with a synthesized stuffer element (encoding Ires-FF with FF flanked by two Nhe1 restriction sites) using blunt end cloning replacing Ires-eGFP between the two PmII. To enable C-terminal tagging with NanoLuciferase (NLuc), NLuc was amplified from pNL1.1 (Promega #N1001) using linker primers with Xho1 sites for ligating into linearized pLenti6-DEST-Ires-FF using Xho1 digest resulting in the construct pLenti6-DEST-NLuc-Ires-FF.
The pLenti6-DEST-NLuc-Ires-FF served as base vector for cloning pLenti6-DEST-GFP-Ires-RFP using Gibson assembly to replace FF with RFP and NLuc with GFP. In a first round FF was replaced by RFP by amplifying RFP from a template using the following Gibson assembly linker primers (Gibson-Nhe1 RFPfw, […]gctagc[…] (SEQ ID NO: 1); Gibson-Nhe1 RFP-Stoprev, […]ctagc[…] (SEQ ID NO: 2)) to clone into pLenti6-DEST-NLuc-Ires-FF digested with Nhe1 and gel-purified to remove the FF fragment. The resulting pLenti6-DEST-NLuc-Ires-RFP vector served as the template to replace NLuc with GFP by amplifying GFP from a template using following Gibson assembly linker primers (Gibson-Xho1 GFPfw, […]c[…] (SEQ ID NO: 3); Gibson-Xho1 GFP-Stoprev, […] (SEQ ID NO: 4)) to clone into pLenti6-DEST-NLuc-Ires-RFP digested with Xho1 and gel-purified to remove the NLuc fragment. All Gibson assembly reactions were performed with Gibson assembly Master Mix (New England Biolabs NEB E261 IL) according to manufacturer's manual, resulting in the destination vector pLenti6-DEST-GFP-Ires-RFP to allow Gateway cloning. To enable gateway cloning and C-terminal GFP tagging of BTK, the BTK open reading frame (ORF) was first shuttled from a pcDNA-DEST40-BTK vector (Invitrogen library ID INV_20090504v1) into pDONR221 (Invitrogen 12536-017) vector using a gateway BP reaction according to the manufacturer's manual (Invitrogen 11789-013) resulting in the novel construct pENTR221-BTK. For C-terminal tagging the STOP codon was mutated to a leucine performing a mutagenesis reaction with the following primers (pENTR221-BTK Quikchange STOP-Leu fw, gtcatggatgaagaatccTTGaacccagctttcttgtac; pENTR221-BTK Quikchange STOP-Leu REVC, gtacaagaaagctgggttCAAggattcttcatccatgac) using the QuikChange Lightning mutagenesis kit (Agilent Technologies #210518) according to the manufacturer's manual, resulting in pENTR221-BTK (STOP-Leu). […]

[3] = system: OCI-LY3 cells; test: Resazurin cell viability (proliferation) assay in OCI-LY3 DLBCL cells; conditions: Homo sapiens, OCI-LY3 cells (BTK independent), 72 h, 50% growth inhibition vs vehicle, read-out: OCI-LY3 Prol GI50
Description: as §1, §2, §3, §4, §5
OCI-LY3 cells were acquired through a license agreement with University Health Network, Toronto, Canada. Cells are cultivated in RPM11640 media (Gibco, #61870-010, lot. 1894759), supplemented with 10% FCS (HyClone, GE #SH30066.03, lot AB217603), 2 mM L-Glutamine (BioConcept, #5-10K50-H, lot. LA03467P), 1 mM Sodium Pyruvate (BioConcept, #5-60F00-H, lot. LB10510P), 10 mM HEPES (Gibco, #15630-056, lot. 1854074), 1% Pen/Strep (BioConcept, #4-01F00-H, lot. LB04235P).

Row | SMILES | GI50 [1] [nM] | DC50 [2] [nM] | BTK deg Amax [2] [%] | GI50 [3] [nM]
1 | COc1ccc(C(=O)N2CCC(CCCN3CCC(Oc4ccc(-c5cc6c(-c7cc(F)cc(NC(=O)c8ccc(C(C)(C)O)cc8F)c7C)ncnc6[nH]5)cc4)CC3)CC2)cc1N1CCC(=O)NC1=O [Compound 15, N-(3-(6-(4-((1-(3-(1-(3-(2,4-Dioxotetrahydropyrimidin-1(2H)-yl)-4-methoxybenzoyl)piperidin-4-yl)propyl)piperidin-4-yl)oxyl)phenyl)-7H-pyrrolo[2,3-d]pyrimidin-4-yl)-5-fluoro-2-methylphenyl)-2-fluoro-4-(2-hydroxypropan-2-yl)benzamide] | 0.56 | 0.4 | 1.6 | 3380
2 | Cc1c(NC(=O)c2ccc(C(C)(C)O)cc2F)cc(F)cc1-c1ncnc2[nH]c(-c3ccc(CNCCCCCN(C)C(=O)c4ccc(Cl)c(N5CCC(=O)NC5=O)c4)cc3)cc12 [Compound 42, 4-chloro-3-(2,4-dioxotetrahydropyrimidin-1(2H)-yl)-N-(5-((4-(4-(5-fluoro-3-(2-fluoro-4-(2-hydroxypropan-2-yl)benzamido)-2-methylphenyl)-7H-pyrrolo[2,3-d]pyrimidin-6-yl)benzyl)amino)pentyl)-N-methylbenzamide] | 5.34 | 59.5 | 8.8 | 8920
3 | COc1ccc(C(=O)N2CCN(CCN3CCC(COc4ccc(-c5cc6c(-c7cc(F)cc(NC(=O)c8ccc(C(C)(C)O)cc8F)c7C)ncnc6[nH]5)cc4)CC3)CC2)cc1N1CCC(=O)NC1=O [Compound 51, N-(3-(6-(4-((1-(2-(4-(3-(2,4-dioxotetrahydropyrimidin-1(2H)-yl)-4-methoxybenzoyl)piperazin-1-yl)ethyl)piperidin-4-yl)methoxy)phenyl)-7H-pyrrolo[2,3-d]pyrimidin-4-yl)-5-fluoro-2-methylphenyl)-2-fluoro-4-(2-hydroxypropan-2-yl)benzamide] | 0.58 | 0.8 | 3.9 | 4370
4 | COc1ccc(C(=O)N2CCC3(CCN(Cc4ccc(-c5cc6c(-c7cc(F)cc(NC(=O)c8ccc(C(C)(C)O)cc8F)c7C)ncnc6[nH]5)cc4)CC3)C2)cc1N1CCC(=O)NC1=O [Compound 55, N-(3-(6-(4-((2-(3-(2,4-dioxotetrahydropyrimidin-1(2H)-yl)-4-methoxybenzoyl)-2,8-diazaspiro[4.5]decan-8-yl)methyl)phenyl)-7H-pyrrolo[2,3-d]pyrimidin-4-yl)-5-fluoro-2-methylphenyl)-2-fluoro-4-(2-hydroxypropan-2-yl)benzamide] | 7.01 | > 124 | 53.8 | 7940
5 | COc1ccc(C(=O)N2CCC3(CCN(Cc4ccc(-c5cc6c(-c7cc(F)cc(NC(=O)c8ccc(C(C)(C)O)cc8F)c7C)ncnc6[nH]5)cc4)CC3CO)CC2)cc1N1CCC(=O)NC1=O (racemic) [Compound 23, rac-N-(3-(6-(4-((9-(3-(2,4-Dioxotetrahydropyrimidin-1(2H)-yl)-4-methoxybenzoyl)-1 (hydroxymethyl)-3,9-diazaspiro[5.5]undecan-3-yl)methyl)phenyl)-7H-pyrrolo[2,3-d]pyrimidin-4-yl)-5-fluoro-2-methylphenyl)-2-fluoro-4-(2-hydroxypropan-2-yl)benzamide] | 5.35 | 46.8 | 10.4 | > 10000
6 | COc1ccc(C(=O)N2CCN(CCN3CCN(Cc4ccc(-c5cc6c(-c7cc(F)cc(NC(=O)c8ccc(C(C)(C)O)cc8F)c7C)ncnc6[nH]5)cc4)CC3)CC2)cc1N1CCC(=O)NC1=O [Compound 16, N-(3-(6-(4-((4-(2-(4-(3-(2,4-Dioxotetrahydropyrimidin-1(2H)-yl)-4-methoxybenzoyl)piperazin-1-yl)ethyl)piperazin-1-yl)methyl)phenyl)-7H-pyrrolo[2,3-d]pyrimidin-4-yl)-5-fluoro-2-methylphenyl)-2-fluoro-4-(2-hydroxypropan-2-yl)benzamide] | 0.67 | 4.2 | 4.1 | > 10000
